Laboratory results: PMC9382805, “Design, synthesis, anticancer evaluation and docking studies of novel 2-(1-isonicotinoyl-3-phenyl-1H-pyrazol-4-yl)-3-phenylthiazolidin-4-one derivatives as Aurora-A kinase inhibitors” (BMC Chemistry, 2022)
Like-named read-outs stand apart in the source and are kept apart here.

Assays:
[1] = system: MCF-7 cell line (breast cancer); test: MTT cytotoxicity assay, MCF-7; type: cell-based, human
Description: (§1) MTT assay was engaged to evaluate the anticancer activity of synthesized compounds P(1–21) against various human cancer cell lines (breast cancer- MCF-7 and colorectal carcinoma- HCT116) [31–34].
(§2) The MTT test was carried out using the 3-(4,5-dimethyl-2-thiazolyl)-2,5-diphenyl-2H-tetrazolium (MTT) colorimetric test [33, 34]. […] The MTT test based on the reduction of MTT (yellow color) depends on cellular metabolic activities due to H-dependent cellular NAD (P) oxidoreductase enzymes [33]. […] The final product of MTT reduction is a purple formazan that can be easily dissolved in DMSO.
(§3) To test the anticancer activities of the synthesized compounds (selected based on docking studies), we evaluated the antiproliferative activity of compounds P (1–21) against HCT116 and MCF-7 cell lines. All the experiments were repeated at least thrice independently, the 50% inhibitory concentration (IC50) of new hybrids was determined (as the anticancer drug concentration causing a 50% reduction in cell viability) and calculated using a trendline equation.

[2] = system: HCT116 cell line (colorectal carcinoma); test: MTT cytotoxicity assay, HCT116; type: cell-based, human
Description: as §1, §2, §3

[3] = target: recombinant human Aurora-A (Homo sapiens, UniProt O14965); test: biochemical; conditions: NADH consumption at 340 nm, 30 °C; read-out: IC50 ± SD, inhibition of Aurora-A kinase
Chain of recombinant human Aurora-A (O14965 whole entry): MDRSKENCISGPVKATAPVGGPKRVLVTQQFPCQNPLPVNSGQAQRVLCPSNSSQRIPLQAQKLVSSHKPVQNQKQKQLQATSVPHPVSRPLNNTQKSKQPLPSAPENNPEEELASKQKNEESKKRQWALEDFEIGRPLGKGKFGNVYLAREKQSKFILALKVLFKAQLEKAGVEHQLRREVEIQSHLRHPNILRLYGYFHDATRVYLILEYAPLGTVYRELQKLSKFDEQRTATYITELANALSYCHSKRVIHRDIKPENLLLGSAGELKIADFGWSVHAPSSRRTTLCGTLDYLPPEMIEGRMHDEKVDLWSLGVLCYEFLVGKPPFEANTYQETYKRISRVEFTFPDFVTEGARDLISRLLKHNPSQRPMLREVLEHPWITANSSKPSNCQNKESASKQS
Description: At 30 °C, dilute enzyme (aurora A), substrates (NADH, NaCl, MgCl2, PEP, LDH, PK, and histones H3), ATP, and inhibitors (selected compounds as per in silico studies) in kinase buffer (HEPES) and this to 96 well plates and incubate for 60 min. Once the ATP substrate was added, the reaction began. With the reaction, NADH was continuously transformed into NAD^+ The activity of Aurora-A can be assayed by measuring the consumption of nicotinamide adenine dinucleotide plus hydrogen (NADH) at 340 nm. Absorbance at 340 nm was continuously recorded for 10 min. Inhibition of recombinant human Aurora-A by inhibitors was initially screened via an enzyme-coupled continuous spectrophotometric assay (Kishore et al., 2008; Aixia et al., 2011; Fancelli D et al., 2006).

[4] = system: HCT 116 and MCF-7 cell lines; test: cells; conditions: Homo sapiens, read-out: IC50, cytotoxicity, range over two cancer cell lines
Description: as §1, §2, §3

[5] = Homo sapiens, MCF7, read-out: IC50 ± SD, MCF-7, inhibition of growth of tumor cell lines
[6] = Homo sapiens, HCT-116, read-out: IC50 ± SD, HCT-116, inhibition of growth of tumor cell lines

Row | SMILES | IC50 [1, 5] [nM] | IC50 [2, 6] [nM] | IC50 [3] [nM] | melting point [°C] | IC50 [4] [nM] | IC50 ([1]; Homo sapiens, MCF7, MTT assay, MCF-7, read-out: IC50 ± SD, MCF-7, inhibition of growth of tumor cell lines) [nM] | IC50 ([1]; MTT assay, MCF-7, listed as VX-680 (Tozasertib), read-out: IC50 ± SD, MCF-7, inhibition of growth of tumor cell lines) [nM] | IC50 ([2]; Homo sapiens, HCT-116, MTT assay, HCT116, read-out: IC50 ± SD, HCT-116, inhibition of growth of tumor cell lines) [nM] | IC50 ([2]; MTT assay, HCT116, listed as VX-680 (Tozasertib), read-out: IC50 ± SD, HCT-116, inhibition of growth of tumor cell lines) [nM]
1 | O=C1CSC(c2cn(C(=O)c3ccncc3)nc2-c2ccc([N+](=O)[O-])cc2)N1c1ccccc1 (stereo not drawn) [Compound P-1, 2-(1-isonicotinoyl-3-(4-nitrophenyl)-1H-pyrazol-4-yl)-3-phenylthiazolidin-4-one] | 4400 ± 180 | 2300 ± 140 | 2340 ± 360 | – | – | – | – | – | –
2 | O=C1CSC(c2cn(C(=O)c3ccncc3)nc2-c2ccc([N+](=O)[O-])cc2)N1c1ccc([N+](=O)[O-])cc1 (stereo not drawn) [Compound P-2, 2-(1-isonicotinoyl-3-(4-nitrophenyl)-1H-pyrazol-4-yl)-3-(4-nitrophenyl)thiazolidin-4-one] | 3260 ± 310 | 3520 ± 330 | 3570 ± 350 | – | – | – | – | – | –
3 | O=C1CSC(c2cn(C(=O)c3ccncc3)nc2-c2ccc([N+](=O)[O-])cc2)N1c1ccccc1[N+](=O)[O-] (stereo not drawn) [Compound P-3, 2-(1-isonicotinoyl-3-(4-nitrophenyl)-1H-pyrazol-4-yl)-3-(2-nitrophenyl)thiazolidin-4-one] | 4490 ± 420 | 4470 ± 450 | 7250 ± 800 | 282 to 284 | – | – | – | – | –
4 | O=C1CSC(c2cn(C(=O)c3ccncc3)nc2-c2ccc([N+](=O)[O-])cc2)N1c1ccc(Cl)cc1 (stereo not drawn) [Compound P-4, 3-(4-chlorophenyl)-2-(1-isonicotinoyl-3-(4-nitrophenyl)-1H-pyrazol-4-yl)thiazolidin-4-one] | 2550 ± 70 | 1350 ± 70 | 1330 ± 150 | 286 to 288 | – | – | – | – | –
5 | O=C1CSC(c2cn(C(=O)c3ccncc3)nc2-c2ccc([N+](=O)[O-])cc2)N1c1cccc(Cl)c1 (stereo not drawn) [Compound P-5, 3-(3-chlorophenyl)-2-(1-isonicotinoyl-3-(4-nitrophenyl)-1H-pyrazol-4-yl)thiazolidin-4-one] | 4010 ± 100 | 3880 ± 160 | 4790 ± 830 | 274 to 276 | – | – | – | – | –
6 | COc1ccc(N2C(=O)CSC2c2cn(C(=O)c3ccncc3)nc2-c2ccc([N+](=O)[O-])cc2)cc1 (stereo not drawn) [Compound P-6, 2-(1-isonicotinoyl-3-(4-nitrophenyl)-1H-pyrazol-4-yl)-3-(4-methoxyphenyl)thiazolidin-4-one] | 440 ± 60 | 370 ± 150 | 180 ± 50 | – | 370 to 440 | – | – | – | –
7 | COc1ccccc1N1C(=O)CSC1c1cn(C(=O)c2ccncc2)nc1-c1ccc([N+](=O)[O-])cc1 (stereo not drawn) [Compound P-7, 2-(1-isonicotinoyl-3-(4-nitrophenyl)-1H-pyrazol-4-yl)-3-(2-methoxyphenyl)thiazolidin-4-one] | 880 ± 30 | 620 ± 30 | 420 ± 120 | 250 to 252 | – | – | – | – | –
8 | COc1ccc(-c2nn(C(=O)c3ccncc3)cc2C2SCC(=O)N2c2ccccc2)cc1 (stereo not drawn) [Compound P-8, 2-(1-isonicotinoyl-3-(4-methoxyphenyl)-1H-pyrazol-4-yl)-3-phenylthiazolidin-4-one] | 6080 ± 240 | 5350 ± 270 | 7320 ± 690 | 300 to 302 | – | – | – | – | –
9 | COc1ccc(-c2nn(C(=O)c3ccncc3)cc2C2SCC(=O)N2c2ccc([N+](=O)[O-])cc2)cc1 (stereo not drawn) [Compound P-9, 2-(1-isonicotinoyl-3-(4-methoxyphenyl)-1H-pyrazol-4-yl)-3-(4-nitrophenyl)thiazolidin-4-one] | 1620 ± 50 | 1450 ± 180 | 1450 ± 50 | 308 to 310 | – | – | – | – | –
10 | COc1ccc(-c2nn(C(=O)c3ccncc3)cc2C2SCC(=O)N2c2ccccc2[N+](=O)[O-])cc1 (stereo not drawn) [Compound P-10, 2-(1-isonicotinoyl-3-(4-methoxyphenyl)-1H-pyrazol-4-yl)-3-(2-nitrophenyl)thiazolidin-4-one] | 1030 ± 110 | 780 ± 40 | 650 ± 90 | 322 to 324 | – | – | – | – | –
11 | COc1ccc(-c2nn(C(=O)c3ccncc3)cc2C2SCC(=O)N2c2ccc(Cl)cc2)cc1 (stereo not drawn) [Compound P-11, 3-(4-chlorophenyl)-2-(1-isonicotinoyl-3-(4-methoxyphenyl)-1H-pyrazol-4-yl)thiazolidin-4-one] | 2530 ± 190 | 2540 ± 200 | 2780 ± 140 | 318 to 320 | – | – | – | – | –
12 | COc1ccc(-c2nn(C(=O)c3ccncc3)cc2C2SCC(=O)N2c2cccc(Cl)c2)cc1 (stereo not drawn) [Compound P-12, 3-(3-chlorophenyl)-2-(1-isonicotinoyl-3-(4-methoxyphenyl)-1H-pyrazol-4-yl)thiazolidin-4-one] | 4350 ± 470 | 4060 ± 380 | 5590 ± 370 | 338 to 340 | – | – | – | – | –
13 | COc1ccc(-c2nn(C(=O)c3ccncc3)cc2C2SCC(=O)N2c2ccc(OC)cc2)cc1 (stereo not drawn) [Compound P-13, 2-(1-isonicotinoyl-3-(4-methoxyphenyl)-1H-pyrazol-4-yl)-3-(4-methoxyphenyl) thiazolidin-4-one] | 8210 ± 350 | 5870 ± 420 | 12400 ± 850 | – | – | – | – | – | –
14 | COc1ccc(-c2nn(C(=O)c3ccncc3)cc2C2SCC(=O)N2c2ccccc2OC)cc1 (stereo not drawn) [Compound P-14] | – | – | – | 336 to 338 | – | – | – | – | –
15 | O=C1CSC(c2cn(C(=O)c3ccncc3)nc2-c2ccc(Br)cc2)N1c1ccccc1 (stereo not drawn) [Compound P-15, 2-(3-(4-bromophenyl)-1-isonicotinoyl-1H-pyrazol-4-yl)-3-phenylthiazolidin-4-one] | 2340 ± 270 | 2180 ± 150 | 2100 ± 130 | 256 to 258 | – | – | – | – | –
16 | O=C1CSC(c2cn(C(=O)c3ccncc3)nc2-c2ccc(Br)cc2)N1c1ccc([N+](=O)[O-])cc1 (stereo not drawn) [Compound P-16, 2-(3-(4-bromophenyl)-1-isonicotinoyl-1H-pyrazol-4-yl)-3-(4-nitrophenyl)thiazolidin-4-one] | 2250 ± 250 | 2010 ± 110 | 2100 ± 150 | 268 to 270 | – | – | – | – | –
17 | O=C1CSC(c2cn(C(=O)c3ccncc3)nc2-c2ccc(Br)cc2)N1c1ccc(Cl)cc1 (stereo not drawn) [Compound P-18, 2-(3-(4-bromophenyl)-1-isonicotinoyl-1H-pyrazol-4-yl)-3-(4-chlorophenyl)thiazolidin-4-one] | 1770 ± 150 | 1520 ± 90 | 1620 ± 110 | 244 to 246 | – | – | – | – | –
18 | O=C1CSC(c2cn(C(=O)c3ccncc3)nc2-c2ccc(Br)cc2)N1c1cccc(Cl)c1 (stereo not drawn) [Compound P-19] | 1210 ± 50 | 1020 ± 120 | 790 ± 70 | 248 to 250 | – | – | – | – | –
19 | COc1ccc(N2C(=O)CSC2c2cn(C(=O)c3ccncc3)nc2-c2ccc(Br)cc2)cc1 (stereo not drawn) [Compound P-20, 2-(3-(4-bromophenyl)-1-isonicotinoyl-1H-pyrazol-4-yl)-3-(4-methoxyphenyl) thiazolidin-4-one] | 560 ± 60 | 420 ± 80 | 220 ± 80 | – | 390 to 560 | – | – | – | –
20 | COc1ccccc1N1C(=O)CSC1c1cn(C(=O)c2ccncc2)nc1-c1ccc(Br)cc1 (stereo not drawn) [Compound P-21] | – | – | – | 260 to 262 | – | – | – | – | –
21 | Cc1cc(Nc2cc(N3CCN(C)CC3)nc(Sc3ccc(NC(=O)C4CC4)cc3)n2)[nH]n1 [VX-680, Tozasertib, reference compound] | – | – | – | – | – | 400 ± 30 | 380 ± 20 | 320 ± 50 | 300 ± 30
